Structures are written as SMILES.

This is an account of results in patent US11225459B2, “Substituted bisphenylalkylurea compounds and methods” (TEXAS TECH UNIVERSITY SYSTEM, priority 2017, dated 2022).

In test [1] the target is Dopamine Transporter (DAT) (Homo sapiens, UniProt Q01959). The test is described as follows: DAT inhibition (Ki), in vitro. Conditions: FIG. 4. The class given is binding. The source says: FIG. 4 depicts a graph showing DAT inhibition (Ki) of compound of the present disclosure designated Formula I (AZ2-57).
Sequence of Dopamine Transporter (DAT) (Q01959 whole entry, species assumed): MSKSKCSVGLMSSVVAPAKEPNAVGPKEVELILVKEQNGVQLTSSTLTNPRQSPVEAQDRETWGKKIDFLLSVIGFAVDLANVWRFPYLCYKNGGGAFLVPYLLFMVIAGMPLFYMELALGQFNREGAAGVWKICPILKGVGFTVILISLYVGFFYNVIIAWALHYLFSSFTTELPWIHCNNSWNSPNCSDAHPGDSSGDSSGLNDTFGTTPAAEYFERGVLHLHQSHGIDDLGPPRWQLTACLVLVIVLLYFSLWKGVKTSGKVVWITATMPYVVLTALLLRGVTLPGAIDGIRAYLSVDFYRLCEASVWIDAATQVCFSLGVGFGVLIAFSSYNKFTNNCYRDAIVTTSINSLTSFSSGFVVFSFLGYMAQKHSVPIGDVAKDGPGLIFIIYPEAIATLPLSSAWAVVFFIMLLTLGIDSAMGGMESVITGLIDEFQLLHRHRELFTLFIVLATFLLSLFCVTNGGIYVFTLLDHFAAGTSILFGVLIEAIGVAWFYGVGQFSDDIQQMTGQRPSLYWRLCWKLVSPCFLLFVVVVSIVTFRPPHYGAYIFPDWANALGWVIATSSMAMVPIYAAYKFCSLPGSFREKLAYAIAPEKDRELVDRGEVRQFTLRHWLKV
In one embodiment, compound of the present disclosure Formula I (AZ2-57) is shown in in vitro studies to show DAT inhibition (see FIG. 4).

The target of the next test is H2 receptor (Homo sapiens, UniProt P25021). Description: H2 R inhibition (Ki). The class given is binding. Conditions: FIG. 6. The source says: FIG. 6 depicts a graph showing H2 R inhibition (Ki) of compound of the present disclosure designated as Formula I (AZ2-57).
Sequence of H2 receptor (P25021 whole entry): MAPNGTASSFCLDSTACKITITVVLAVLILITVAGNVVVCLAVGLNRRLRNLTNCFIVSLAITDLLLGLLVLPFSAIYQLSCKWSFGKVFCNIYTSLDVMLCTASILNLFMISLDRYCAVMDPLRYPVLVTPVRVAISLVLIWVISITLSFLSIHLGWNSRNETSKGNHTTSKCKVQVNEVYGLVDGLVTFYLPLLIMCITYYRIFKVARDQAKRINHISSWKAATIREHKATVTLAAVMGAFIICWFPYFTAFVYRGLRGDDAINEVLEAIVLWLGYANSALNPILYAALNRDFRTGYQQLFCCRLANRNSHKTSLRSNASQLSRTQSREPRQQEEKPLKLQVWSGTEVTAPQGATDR
The next test has as its system HUVEC cells. The test is described as follows: Ca2+ release assay (HUVEC cells). The class given is cell-based. Conditions: FIG. 7. An excerpt:
FIG. 7 depicts a graph showing Ca2+ release assay (HUVEC cells) of compound of the present disclosure designated as Formula I (AZ2-57).
Unlike many other DAT inhibitors on the market, our compound has very limited interaction with other GPCR receptors, reducing potential CNS-induced toxicity. It is thus an embodiment of the present disclosure to further show effect on microglia-induced immune response (chronic inflammation), dopamine surge in the presence of Formula I (AZ2-57).

A further test deals with H1 receptor (Homo sapiens, UniProt P35367). The test is described as follows: H1 R inhibition (Ki). The class given is binding. Conditions: FIG. 5. The source says:
FIG. 5 depicts a graph showing H1 R inhibition (Ki) of compound of the present disclosure designated as Formula I (AZ2-57).

Sequence of H1 receptor (P35367 whole entry): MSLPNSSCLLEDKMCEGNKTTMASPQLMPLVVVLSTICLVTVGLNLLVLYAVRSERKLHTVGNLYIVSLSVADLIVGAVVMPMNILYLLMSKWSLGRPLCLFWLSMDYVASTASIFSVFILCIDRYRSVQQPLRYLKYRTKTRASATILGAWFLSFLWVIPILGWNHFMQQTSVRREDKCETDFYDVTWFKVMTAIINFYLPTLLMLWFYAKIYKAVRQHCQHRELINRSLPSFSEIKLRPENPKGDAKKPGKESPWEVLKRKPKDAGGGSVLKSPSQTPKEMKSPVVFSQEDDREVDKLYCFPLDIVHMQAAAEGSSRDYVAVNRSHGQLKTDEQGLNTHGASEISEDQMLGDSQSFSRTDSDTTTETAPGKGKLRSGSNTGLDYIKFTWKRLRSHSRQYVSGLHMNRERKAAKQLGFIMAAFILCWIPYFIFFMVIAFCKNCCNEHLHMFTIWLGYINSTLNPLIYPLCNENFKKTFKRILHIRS

As usually defined, the Ki is the dissociation constant of the complex between target and ligand, obtained from inhibition or displacement. A higher Ki goes with lower affinity. Take `O=C(NCCCCC(c1ccc(F)cc1)c1ccc(F)cc1)Nc1ccc(Cl)cc1` [AZ2-57, 1-(5,5-bis(4-fluorophenyl)pentyl)-3-(4-chlorophenyl)urea]: the affinity in test [1] corresponds to a Ki of 5.2 nM. Also, at H2 receptor, affinity was put at a Ki of 1750 nM and the “inhibition of H2 receptor” value worked out at 54%. The “Ca2+ release” value in the test on HUVEC cells is reported as “effectively manipulated”. For the same compound, on H1 receptor, the Ki was determined as 32 nM and the “inhibition of H1 receptor” value stood at 65.4%.
